Measured values published in US8673652B2, “Immunoassay with extended detection window” (priority 2010, dated 2014).
Converted amounts (≈) assume the structure as drawn.

Tests used:
[1] = test system: polyclonal antibody raised against zolpidem analogue derivatised at the 4'-phenyl ring coupled to BTG; assay: Competitive ELISA for zolpidem (antibody specificity and sensitivity); format: binding, sheep; conditions: for IC50 (ng/ml) / IC50: competitive ELISA, hapten-HRP conjugate, absorbance at 450 nm; for % CR = percentage cross-reactivity based on 100% specificity to zolpidem: relative to zolpidem = 100%
Method: Analogues of zolpidem derivatised at the 4′-phenyl ring were coupled by way of a crosslinker to bovine thyroglobulin (BTG). The resulting immunogens were administered separately to adult sheep on a monthly basis to provide target-specific polyclonal antisera. IgG was extracted from the antisera via caprylic acid/ammonium sulphate precipitation of immunoglobulin. Microtitre plates were coated with antibody (125 μl/well) in coating buffer (10 mM Tris pH 8.5) at 37° C. for 2 h. The plates were then washed 4 times over 10 mins with working strength TBST. 50 μl of sample/standard (zolpidem, Sequioa SRP00500z; alpidem, TRC A575560; zaleplon, Sequioa SRP00300z; zopiclone, Sequioa SRP02000z; zolpidem Carboxylic Acid, Randox LK865 and zolpidem carboxylic acid, Randox LK855) was added to the appropriate wells in triplicate, followed by 75 μl of hapten-HRP conjugate and incubated at 25° C. for 1 h. The plates were then washed and 125 μl of TMB (Randox, 4380-15) was added to each well and left at room temperature for 20 mins in the dark. The reaction was stopped using 125 μl of 0.2M sulphuric acid. The absorbances were read at 450 nm with an ELISA microplate reader (BIO-TEK Instruments, Elx800) and the means calculated. Antibody specificity and sensitivity were then determined.
Competitive ELISA results in Table 1 and FIG. 3 highlight the specificity of the antibody of the disclosure towards zolpidem and cross-reactivity towards 4-[3-(2-N,N-dimethylamino-2-oxoethyl)-6-methylimidazo[1,2-a]pyridin-2-yl]benzoic acid. […] The disclosure, through its unique immunogens and antibodies, thus enables methods and kits able to detect and determine zolpidem and/or 4-[3-(2-N,N-dimethylamino-2-oxoethyl)-6-methylimidazo[1,2-a]pyridin-2-yl]benzoic acid with high sensitivity.

[2] = cited from earlier work

Row | SMILES | IC50 (ng/ml) [1] | % CR = percentage cross-reactivity based on 100% specificity to zolpidem [1] | IC50 [1] | share of metabolite produced by cytochrome P450 mediated metabolism of zolpidem ([2]; metabolism mediated by cytochrome P450) | half-life ([2]; upon ingestion)
1 | CCCN(CCC)C(=O)Cc1c(-c2ccc(Cl)cc2)nc2ccc(Cl)cn12 [Alpidem, alpidem] | >>50 ng/ml | <<1.26% | – | – | –
2 | Cc1ccc2nc(-c3ccc(C(=O)O)cc3)c(CC(=O)N(C)C)n2c1 [Hapten M1, 4-[3-(2-N,N-dimethylamino-2-oxoethyl)-6-methylimidazo[1,2-a]pyridin-2-yl]benzoic acid] | – | 18.6% | 3.33 ng/mL (≈ 9.87 nM) | more than 80% | –
3 | Cc1ccc(-c2nc3ccc(C(=O)O)cn3c2CC(=O)N(C)C)cc1 [Hapten M2, 3-(2-N,N-dimethylamino-2-oxoethyl)-2-(4-methylphenyl)imidazo[1,2-a]pyridin-6-yl carboxylic acid] | – | <0.13% | >500 ng/mL | – | –
4 | CCN(C(C)=O)c1cccc(-c2ccnc3c(C#N)cnn23)c1 [Zaleplon, zaleplon] | >>50 ng/ml | <<1.26% | – | – | –
5 | Cc1ccc(-c2nc3ccc(C)cn3c2CC(=O)N(C)C)cc1 [Zolpidem, N,N-dimethyl-2-[6-methyl-2-(4-methylphenyl)imidazo[1,2-a]pyridin-3-yl]acetamide] | – | 100% | 0.63 ng/mL (≈ 2.05 nM) | – | 1.5 to 3 h
6 | CN1CCN(C(=O)OC2c3nccnc3C(=O)N2c2ccc(Cl)cn2)CC1 (centres unmarked) [Zopiclone, zopiclone] | >>50 ng/ml | <<1.26% | – | – | –
